These results are taken from ChEMBL document CHEMBL1629711, “Synthesis and in vitro biological evaluation of new polyamine conjugates as potential anticancer drugs” (Eur J Med Chem, 2010).

The structures appear in SMILES notation. Active and inactive are the calls of the source. The rule behind the calls is not given here.

Test [1] concerns A-375. Nature of the test: Cytotoxicity against human A375 cells at 1 to 100 uM after 44 hrs by MTT assay. It counts as functional, cell-based. For orientation: Tetrazolium dyes change colour on reduction, which living cells bring about.
For test [2], the system named is A-375. Nature of the test: Induction of necrosis in human A375 cells assessed as morphological changes at IC50 concentration after 44 hrs using acridine orange and ethidium bromide staining by fluorescence microscopy. In kind it is functional, cell-based.
The subject of test [3] is A-375. The experiment in a line: Cytotoxicity against human A375 cells after 44 hrs by MTT assay. It counts as functional, cell-based. Particulars: for IC50: A-375, 44 h.
Test [4] concerns A-375. The experiment in a line: Induction of apoptosis in human A375 cells assessed as morphological changes at IC50 concentration after 44 hrs using acridine orange and ethidium bromide staining by fluorescence microscopy. In kind it is functional, cell-based.
Test [5] has as its system A-375. Nature of the test: Cell cycle arrest in human A375 cells assessed as accumulation at G0/G1 phase at 50 uM after 24 hrs using propidium iodide staining by flow cytometry relative to control. It counts as functional. On the technique in general: Flow cytometry measures light scatter and fluorescence of single cells or particles in a stream.
Test [6] concerns A-375. The experiment in a line: Cell cycle arrest in human A375 cells assessed as accumulation at G2/M phase at 50 uM after 24 hrs using propidium iodide staining by flow cytometry relative to control. In kind it is functional.
Test [7] deals with A-375. The experiment in a line: Cell cycle arrest in human A375 cells assessed as accumulation at hypodiploid subG1 phase at 20 uM after 24 hrs using propidium iodide staining by flow cytometry relative to control. In kind it is functional.
Test [8] deals with A-375. The experiment in a line: Cell cycle arrest in human A375 cells assessed as accumulation at G0/G1 phase at 20 uM after 24 hrs using propidium iodide staining by flow cytometry relative to control. It counts as functional.
The subject of test [9] is A-375. The experiment in a line: Cell cycle arrest in human A375 cells assessed as accumulation at S phase at 20 uM after 24 hrs using propidium iodide staining by flow cytometry relative to control. In kind it is functional.
Test [10] has as its system A-375. The experiment in a line: Cell cycle arrest in human A375 cells assessed as accumulation at hypodiploid subG1 phase at 50 uM after 24 hrs using propidium iodide staining by flow cytometry relative to control. It counts as functional.
The test system of test [11] is A-375. Nature of the test: Cell cycle arrest in human A375 cells assessed as accumulation at S phase at 50 uM after 24 hrs using propidium iodide staining by flow cytometry relative to control. It counts as functional.
In test [12] the test system is A-375. The experiment in a line: Cell cycle arrest in human A375 cells assessed as accumulation at G2/M phase at 20 uM after 24 hrs using propidium iodide staining by flow cytometry relative to control. It counts as functional.
The test system of test [13] is A-375. The experiment in a line: Induction of apoptosis in human A375 cells assessed as morphological changes at 50 uM after 44 hrs using acridine orange and ethidium bromide staining by fluorescence microscopy. In kind it is functional.

As for `O=C1c2ccccc2C(=O)N1CCCN1CCN(CCCN2C(=O)c3ccccc3C2=O)CC1`, in [1], the result was inactive.

On to `O=C1c2cccc([N+](=O)[O-])c2C(=O)N1CCCN1CCN(CCCN2C(=O)c3cccc([N+](=O)[O-])c3C2=O)CC1`, for which, in test [1], the result was inactive.

For the compound `CN(CCCN1C(=O)c2ccccc2C1=O)CCCN1C(=O)c2ccccc2C1=O`, in test [1], the result was inactive.

A word on the IC50: it is the concentration needed to halve the response being measured. Read a high IC50 as a need for much substance. Regarding `CN(CCCNC(=O)c1cnc2ccccc2c1N)CCCNC(=O)c1cnc2ccccc2c1N`, in test [2], the outcome was inactive. For the same compound, in [3], the inhibition entry was “Dose-dependent effect” and the half-maximal inhibitory concentration (IC50) amounted to 87.9 µM. Besides, the result in [4] was inactive.

For the compound `Cc1ccc2nnc(C(=O)NCCCN3CCN(CCCNC(=O)c4nnc5ccc(C)cc5c4N)CC3)c(N)c2c1`, the Activity was 32% in test [5]; 46% in test [6]; 4% in [7]; 35% in [8]; 19% in test [9]; 9% in [10]. Besides, the Activity is listed as 22% in test [11], 46% in test [12] and 14% in test [13]. The result in [2] and in [4] was inactive. The inhibition entry in test [3] is “Dose-dependent effect”. In addition, the concentration for half-maximal inhibition (IC50) in test [3] came to 31.6 µM.

On to `Nc1c(C(=O)NCCCN2CCN(CCCNC(=O)c3cnc4ccccc4c3N)CC2)cnc2ccccc12`, for which the outcome in test [2] and in test [4] was inactive. Further, the Activity in test [7] turned out to be 4%; in [8], 49%; in test [9], 31%; in [12], 21%; in test [13] it was 30%. For the same compound, the inhibition result in [3] is “Dose-dependent effect”. The IC50 in [3] came to 16.8 µM.

On to `CN(CCCN1C(=O)c2cccc([N+](=O)[O-])c2C1=O)CCCN1C(=O)c2cccc([N+](=O)[O-])c2C1=O`, for which the result in test [1] was inactive.

As for `Cc1ccc2nnc(C(=O)NCCCOCCCCOCCCNC(=O)c3nnc4ccc(C)cc4c3N)c(N)c2c1`, in test [2], the outcome was inactive. For the same compound, in [3], the inhibition entry is “Dose-dependent effect” and the 50% inhibitory concentration (IC50) worked out at 100 µM. In addition, the outcome in test [4] was inactive.

Take `Nc1c(C(=O)NCCCOCCCCOCCCNC(=O)c2cnc3ccccc3c2N)cnc2ccccc12`: the Activity in test [5] stood at 39%; in test [6] it was 8%; in [7], 2%; in test [8], 58%; in test [9] it was 22%; in [10], 3%. For the same compound, the Activity in test [11] stood at 53%; in [12], 20%; in test [13] it was 8%. Moreover, the outcome in test [2] and in test [4] was inactive. The inhibition entry in [3] is “Dose-dependent effect”. For the same compound, in [3], the IC50 came to 15.5 µM.

Consider `O=C1c2cccc([N+](=O)[O-])c2C(=O)N1CCCOCCCCOCCCN1C(=O)c2cccc([N+](=O)[O-])c2C1=O`, for which, in test [1], the result was inactive.

On to `Cc1ccc2nnc(C(=O)NCCCN(C)CCCNC(=O)c3nnc4ccc(C)cc4c3N)c(N)c2c1`, for which, in [2], the outcome was inactive. Further, in test [3], the inhibition entry is “Dose-dependent effect” and the half-maximal inhibitory concentration (IC50) worked out at 116 µM. In addition, in test [4], the outcome was inactive.

For `O=C1c2ccccc2C(=O)N1CCCOCCCCOCCCN1C(=O)c2ccccc2C1=O`, the outcome in test [1] was inactive.
